Experimental data: patent publication EP0086256A1, “1-(2,4-Dichlorophenoxy)-3-(3,4-dimethoxy-beta-phenethylamino)-propan-2-0l, processes for its preparation and pharmaceutical compositions containing it” (VEB Arzneimittelwerk Dresden, priority 1981, dated 1983)
Where two headings read alike, the source gives them in different places.

Tests used:
[1] = biological target: T1, adrenergen β2-Rezeptoren der Bronchialmuskulatur (Cavia porcellus, UniProt Q8K4Z4); test: Tolerance time to asthma-inducing histamine in the conscious guinea pig; assay type: in vivo, Meerschweinchen; conditions: read-out: ED50, Verdopplung der Toleranzzeit gegenüber dem asthmaauslösenden Histamin
T1 construct: from tissue; host or cells: conscious guinea pig, whole animal (airways)
Description: (§1) Aus diesem Grunde ist die Anwendung von nichtselektiv wirkenden β-Rezeptorenblockern bei Patienten mit obstruktiven Atemwegserkrankungen kontraindiziert. Aber auch die Anwendung der sogenannten kardioselektiven ß-Rezeptorenblocker, z. […] Disposition des Patienten zur Dyspnoe führen bzw. einen Asthmaanfall auslösen können.

[2] = test system: elektrischen Flimmerschwelle; test: Antiarrhythmic effect, rise of the electrical fibrillation threshold; assay type: in vivo, Meerschweinchen; conditions: for ED50: Cavia porcellus, read-out: ED50, Erhöhung der elektrischen Flimmerschwelle
Description: as §1

β2-Rezeptoren der Gefäße [3] = test: Stimulating effects on vascular β2 receptors, comparison with the known 2,5-dichloro compound; conditions: compared with the 2,4-Dichlor-Verbindung
Description: 1-Phenoxy-3-alkylamino-propanole-(2) sind mehrfach beschrieben worden (DE-PS 2259 489, DE-PS 2213 044, DD-AP 45 360, BE-PS 783 086, NE-PS 6813 616, GD-PS 1148 563, NE-PS 7307 821, DD-AP 93 349, GB-PS 1078 852, BE-PS 746 107). Auch das 1-(2,5-Dichlor-phenoxy )-3-(3,4-dimethoxy-ß-phenethylamino)-propanol-(2) ist bekannt (JA-0 52033 829); es unterscheidet sich in seiner Wirksamkeit gegenüber der erfindungsgemäßen 2,4-Dichlor-Verbindung jedoch dadurch, daß die ausgeprügten stimulierenden Effekte an den β2-Rezeptoren der Gefäße, die eine große Bedeutung für den therapeutischen Einsatz besitzen, fehlen.

β2-Rezeptoren der Gefäße [4] = biological target: T2, β2-Rezeptoren der Gefäße (Felis catus, UniProt Q9TST5); test: Influence on the blood-pressure-lowering effect of isoproterenol; assay type: in vivo; conditions: Katze
T2 construct: from tissue; host or cells: cat, whole animal (blood vessels)
Description: as §1

[5] = test system: spontan hypertensive Ratte; test: Antihypertensive effect in the spontaneously hypertensive rat; assay type: in vivo; conditions: fold stronger than Propranolol
Description: as §1

[6] = biological target: T3, adrenergen β2-Rezeptoren der Bronchialmuskulatur (Canis lupus familiaris, UniProt P54833); test: Respiratory minute volume in the anaesthetised dog; assay type: in vivo; conditions: narkotisierter Hund; 0,1 mg/kg
T3 construct: from tissue; host or cells: dog, whole animal (blood vessels; bronchial muscle in the anaesthetised dog)
Description: as §1

in vivo = conditions: mouse, ip
Description: as §1

β1-Rezeptoren [7] = biological target: T4, β1-Rezeptoren (Canis lupus familiaris, UniProt P79148); test: β1 blockade, heart rate and contractility in the whole animal; assay type: in vivo; conditions: Hund; relative to Propranolol
T4 construct: from tissue; host or cells: dog, whole animal (heart)
Description: as §1

β1-Rezeptoren [8] = biological target: T5, β1-Rezeptoren (Felis catus, UniProt Q9TST6); test: as above; assay type: in vivo; conditions: Katze; relative to Propranolol
T5 construct: from tissue; host or cells: cat, whole animal (heart)
Description: as §1

β2-Rezeptoren der Gefäße [9] = biological target: T6, β2-Rezeptoren der Gefäße (Canis lupus familiaris, UniProt P54833); test: Influence on the blood-pressure-lowering effect of isoproterenol; assay type: in vivo; conditions: Hund
T6 construct: from tissue; host or cells: dog, whole animal (blood vessels; bronchial muscle in the anaesthetised dog)
Description: as §1

[10] = test system: adrenergen β2-Rezeptoren der Bronchialmuskulatur; test: β2 stimulation of bronchial muscle, isolated tracheal muscle and whole animal; conditions: am isolierten Trachealmuskel als auch im Ganztierversuch
Description: as §1

[11] = test system: Nikotintremor des Meerschweinchens; test: Nicotine tremor, antiparkinson effect; assay type: in vivo, Meerschweinchen; conditions: compared with Trihexylphenidyl (Parkopan)
Description: as §1

β1-Rezeptoren [12] = test: Isoproterenol antagonism, lipolysis in epididymal fat; conditions: Isoproterenolantagonismus, Propranolol = 100; Ratte
β1-Rezeptoren [13] = test: Isoproterenol antagonism, intestinal peristalsis; conditions: Isoproterenolantagonismus, Propranolol = 100; Kaninchen
[14] = test system: Myokardinfarktmodell der Ratte; test: Myocardial infarction model, prophylactic oral dosing before coronary ligation; conditions: relative to Propranolol; orale Applikation von 3,6 und 12 mg/kg I über 28 Tage vor Ligatur der A. coronaria sinistra; CPK, GOT, EKG-Veränderungen, relatives Infarktgewicht

T1 sequence (Q8K4Z4 whole entry): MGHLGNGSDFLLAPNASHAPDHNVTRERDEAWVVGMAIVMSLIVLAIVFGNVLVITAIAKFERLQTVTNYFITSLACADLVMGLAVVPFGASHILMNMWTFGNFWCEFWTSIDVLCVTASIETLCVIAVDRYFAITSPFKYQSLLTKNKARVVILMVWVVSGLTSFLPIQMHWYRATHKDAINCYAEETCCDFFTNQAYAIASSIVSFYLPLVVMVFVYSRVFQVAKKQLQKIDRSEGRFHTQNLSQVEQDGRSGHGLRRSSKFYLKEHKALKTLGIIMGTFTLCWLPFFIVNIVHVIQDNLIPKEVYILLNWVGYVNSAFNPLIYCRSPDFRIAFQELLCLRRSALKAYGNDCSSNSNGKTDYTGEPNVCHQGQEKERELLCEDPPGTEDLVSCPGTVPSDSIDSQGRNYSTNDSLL
T2 sequence (Q9TST5 whole entry): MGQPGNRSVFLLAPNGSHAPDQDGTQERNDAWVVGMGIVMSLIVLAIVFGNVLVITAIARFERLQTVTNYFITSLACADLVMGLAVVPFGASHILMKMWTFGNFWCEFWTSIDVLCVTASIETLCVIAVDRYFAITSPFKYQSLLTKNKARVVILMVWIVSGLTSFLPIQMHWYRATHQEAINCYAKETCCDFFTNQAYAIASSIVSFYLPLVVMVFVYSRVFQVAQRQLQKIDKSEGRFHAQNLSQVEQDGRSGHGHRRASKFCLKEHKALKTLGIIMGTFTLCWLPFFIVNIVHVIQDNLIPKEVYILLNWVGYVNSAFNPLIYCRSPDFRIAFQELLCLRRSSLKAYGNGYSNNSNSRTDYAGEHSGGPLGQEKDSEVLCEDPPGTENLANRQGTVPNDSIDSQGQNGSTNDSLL
T6 sequence (P54833 whole entry): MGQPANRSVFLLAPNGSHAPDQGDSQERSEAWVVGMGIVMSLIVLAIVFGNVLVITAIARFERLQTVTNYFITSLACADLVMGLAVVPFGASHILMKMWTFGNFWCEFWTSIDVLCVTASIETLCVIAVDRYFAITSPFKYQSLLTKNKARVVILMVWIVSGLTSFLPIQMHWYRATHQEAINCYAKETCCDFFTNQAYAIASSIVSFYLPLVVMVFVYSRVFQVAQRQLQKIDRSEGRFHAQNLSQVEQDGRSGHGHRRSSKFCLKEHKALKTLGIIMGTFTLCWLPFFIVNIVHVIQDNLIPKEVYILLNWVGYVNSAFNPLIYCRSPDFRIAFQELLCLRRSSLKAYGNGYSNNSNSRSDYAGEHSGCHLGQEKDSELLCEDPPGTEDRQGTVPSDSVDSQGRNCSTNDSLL
T3 sequence (P54833 whole entry): as above
T5 sequence (Q9TST6 whole entry): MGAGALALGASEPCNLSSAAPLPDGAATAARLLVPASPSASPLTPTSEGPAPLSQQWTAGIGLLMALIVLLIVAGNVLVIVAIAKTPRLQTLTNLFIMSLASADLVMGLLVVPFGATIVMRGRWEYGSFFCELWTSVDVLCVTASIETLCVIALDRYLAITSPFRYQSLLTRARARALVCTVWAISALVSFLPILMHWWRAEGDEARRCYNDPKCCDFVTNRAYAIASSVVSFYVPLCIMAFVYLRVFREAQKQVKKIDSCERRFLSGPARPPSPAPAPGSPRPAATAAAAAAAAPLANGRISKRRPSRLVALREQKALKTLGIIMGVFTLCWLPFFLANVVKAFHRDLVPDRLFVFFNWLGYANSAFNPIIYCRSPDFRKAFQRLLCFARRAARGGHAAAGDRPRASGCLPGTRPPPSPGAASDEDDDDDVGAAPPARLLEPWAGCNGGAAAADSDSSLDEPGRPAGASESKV
T4 sequence (P79148 whole entry): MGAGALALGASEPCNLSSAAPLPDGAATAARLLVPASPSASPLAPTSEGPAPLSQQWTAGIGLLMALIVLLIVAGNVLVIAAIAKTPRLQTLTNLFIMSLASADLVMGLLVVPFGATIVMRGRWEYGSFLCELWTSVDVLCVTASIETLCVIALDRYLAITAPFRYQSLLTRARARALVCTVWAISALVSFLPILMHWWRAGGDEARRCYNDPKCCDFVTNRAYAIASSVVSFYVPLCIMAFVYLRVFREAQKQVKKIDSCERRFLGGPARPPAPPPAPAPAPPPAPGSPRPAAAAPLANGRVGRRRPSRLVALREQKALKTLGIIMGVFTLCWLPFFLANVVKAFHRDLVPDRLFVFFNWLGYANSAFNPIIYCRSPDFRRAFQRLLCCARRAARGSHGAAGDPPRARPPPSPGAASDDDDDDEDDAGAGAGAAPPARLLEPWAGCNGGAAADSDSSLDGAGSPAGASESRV

CC(C)NCC(O)c1ccc(O)c(O)c1 (stereo not shown) [Isoproterenol, reference compound]
ED50 [1]: 0.04 mg/kg

Tachmalin
ED50, Erhöhung der elektrischen Flimmerschwelle ([2]; Meerschweinchen): 0,71 mg/kg

COc1ccc(CCNCC(O)COc2cc(Cl)ccc2Cl)cc1OC (stereo not shown) [1-(2,5-Dichlor-phenoxy)-3-(3,4-dimethoxy-ß-phenethylamino)-propanol-(2)]
stimulierende Effekte an den β2-Rezeptoren der Gefäße (β2-Rezeptoren der Gefäße [3]): fehlen

CC(C)NCC(O)COc1cccc2ccccc12 (stereo not shown) [Propranolol, reference compound]
blutdrucksenkender Effekt des Isoproterenols (β2-Rezeptoren der Gefäße [4]): aufhebt
ED50 ([2]; Meerschweinchen): 1.4 mg/kg

COc1ccc(CCNCC(O)COc2ccc(Cl)cc2Cl)cc1OC (stereo not drawn) [I, 1-(2,4-Dichlorphenoxy)-3-(3,4-dimethoxy-β-phenethylamino)-propanol-(2)]
ED50 [1]: 0.76 mg/kg
antihypertensiver Effekt [5]: ~10
Atemzeitvolumen [6]: isoproterenolähnlichen Vergrößerung des Atemzeitvolumens
LD50 (in vivo): 141 mg/kg
Wirksamkeit an den β1-Rezeptoren (Herzfrequenz und Kontralctilität am Ganztier) (β1-Rezeptoren [7]): nur halb so wirksam wie Propranolol
Wirksamkeit an den β1-Rezeptoren (Herzfrequenz und Kontralctilität am Ganztier) (β1-Rezeptoren [8]): nur halb so wirksam wie Propranolol
blutdrucksenkender Effekt des Isoproterenols (β2-Rezeptoren der Gefäße [9]): Verstärkung der Isoproterenolwirkung
blutdrucksenkender Effekt des Isoproterenols (β2-Rezeptoren der Gefäße [4]): Verstärkung der Isoproterenolwirkung
Stimulation der adrenergen β2-Rezeptoren der Bronchialmuskulatur [10]: nachweisen läßt
Antiparkinsonwirkung [11]: etwa die gleiche Antiparkinsonwirkung wie Trihexylphenidyl
Stärke der β1-Rezeptorenblockade, Lipolyse (Epiditymalfett) (β1-Rezeptoren [12]): 220
Stärke der β1-Rezeptorenblockade, Darmperistaltik (β1-Rezeptoren [13]): 100
kardioprotektive Wirkung [14]: zweimal
ED50 ([2]; Meerschweinchen): 0.22 mg/kg

CC(C)(C)NCC(O)COc1ccc(NC(=O)NC2CCCCC2)cc1 (stereo not shown) [Talinolol, reference compound]
Stärke der β1-Rezeptorenblockade, Lipolyse (Epiditymalfett) (β1-Rezeptoren [12]): 96
Stärke der β1-Rezeptorenblockade, Darmperistaltik (β1-Rezeptoren [13]): 35
ED50 [2]: 0.31 mg/kg
